Measured values as given in PubChem BioAssay AID1996.
≈ marks a conversion by molar mass, not a printed value.

Conditions: buffer; pH 7.4; 200.0 µM

Row | Structure (SMILES) | solubility kinetic [µg/mL]
1 | Cc1cc(=O)oc2cc(NC(=O)c3ccc(OC(F)F)cc3)ccc12 | 1 (≈ 2.9 µM)
2 | Cc1ccc(C)c(NC(=O)N2CCCCCC2)c1 | > 37
3 | Nc1cccc(-n2cccc2)c1 | 18.2 (≈ 115 µM)
4 | Nc1cc(=O)[nH]c(SCC(=O)Nc2cccc(S(=O)(=O)N3CCCCCC3)c2)n1 | 11.7 (≈ 26.7 µM)
5 | CCSc1nsc(NC(=O)Nc2ccccc2F)n1 | 1.4 (≈ 4.69 µM)
6 | CC(C)NC(=O)NNC(=O)c1nn(-c2ccc(F)cc2)ccc1=O | > 50
7 | O=C(Nc1ccc([N+](=O)[O-])cc1)C1COc2ccccc2O1 (stereo not drawn) | 0.9 (≈ 3 µM)
8 | Cc1nnc(SCC(=O)Nc2ccc([N+](=O)[O-])cc2)n1C | > 46.1
9 | NC(=[NH2+])SCC1=CCS(=O)(=O)C1.[Br-] | 39.4
10 | CCCCOP(=O)(c1ccc(N(C)C)cc1)C(O)c1ccc(N(C)C)cc1 (stereo not drawn) | > 58.6
11 | O=C(Nc1ccc(S(=O)(=O)N2CCCCC2)cc1)C1CCCCC1 | 13.5 (≈ 38.5 µM)
12 | N#Cc1ccc(C(=O)N2CCN(c3ncccn3)CC2)cc1 | > 44
13 | COc1ccccc1N1CCN(C(=O)/C=C/c2cccc([N+](=O)[O-])c2)CC1 | 3.6 (≈ 9.8 µM)
14 | COc1ccc(OCCn2cnc3ccccc32)cc1 | > 40.2
15 | CCCCOc1ccc(C(=O)OCC(=O)c2c(N)n(C)c(=O)n(C)c2=O)cc1 | 4.4 (≈ 11.3 µM)
16 | COc1ccc(/C=C/C(=O)NC(=S)Nc2ccccn2)cc1 | 1.8 (≈ 5.74 µM)
17 | COC(=O)c1c(C)oc(C)c1S(=O)(=O)N1CCOCC1 | 40.9 (≈ 135 µM)
18 | CSc1ncccc1C(=O)OCC(=O)NCc1cccs1 | 35.8 (≈ 111 µM)
19 | CC1CCCC(NC(=O)CSc2nncs2)C1C (stereo not drawn) | > 42.8
20 | COc1ccc(C(=O)CCC(=O)NC2=NCCS2)cc1 | 14.6 (≈ 49.9 µM)
21 | Cc1ccc(NC(=O)CN2C(=O)c3ccccc3S2(=O)=O)c(C)c1 | 2.7 (≈ 7.84 µM)
22 | COc1ccc(OC(C)C(=O)NC2CCCCCCC2)cc1 (stereo not drawn) | 45.1 (≈ 148 µM)

Row | Structure (SMILES) | solubility kinetic [µg/mL]
23 | CSc1ccc(CN(C)C(C)C(=O)NCC2CCCCC2)cc1 (stereo not drawn) | 28.3 (≈ 84.6 µM)
24 | CCOC(=O)c1ccc(CN2Cc3ccccc3C2=O)cc1 | > 44.3
25 | CCc1ccc(C)c(OC(=O)c2cncc(Br)c2)c1 | 2.1 (≈ 6.56 µM)
26 | Cc1cccc2sc(NC(=O)CN3C(=O)NC4(CCCC4)C3=O)nc12 | 46.6 (≈ 130 µM)
27 | COc1ccc(N2C(=O)CSC2c2ccc(F)c(F)c2)cc1 (stereo not drawn) | > 48.2
28 | CN(C)/C=N/S(=O)(=O)c1ccc(Cl)cc1 | 35.8 (≈ 145 µM)
29 | CC1CN(C(=O)CSc2nc(N)cc(N)n2)CC(C)O1 (stereo not drawn) | > 44.6
30 | CCCS(=O)(=O)N1CCCC(C(=O)Oc2ccccc2Cl)C1 (stereo not drawn) | 45.6 (≈ 132 µM)
31 | O=C(Nc1ccc(S(=O)(=O)N2CCCC2)cc1)C1CCCCC1 | 13.7 (≈ 40.7 µM)
32 | Cc1ccccc1C(=O)Nc1ccc(CN2CCOCC2)cc1 | 45.9 (≈ 148 µM)
33 | CCCc1ncc(C(O)c2ccccc2OC)n1C (stereo not drawn) | > 39.1
34 | O=C1NCCCC1C(=O)N1CCCCC1 (stereo not drawn) | > 31.5
35 | COc1cc(OC)c(OC)cc1CN1CCC(O)CC1.Cl | > 47.7
36 | Cc1ccc(C)c(C(=O)CCC(=O)NCc2ccc(Cl)cc2)c1 | 10.9 (≈ 33 µM)
37 | NC1=NC(=O)C(Cc2ccccc2)S1 (stereo not drawn) | > 30.9
38 | CCCSc1nsc(NC(=O)CCC)n1 | 10.8 (≈ 44 µM)
39 | COC(=O)c1ccccc1C(=O)N(c1ccccc1)c1ccccc1 | 44.4 (≈ 134 µM)
40 | Oc1cc2c(cc1CN1CCN(c3ncccn3)CC1)OCO2 | 17.2 (≈ 54.7 µM)
41 | O=[N+]([O-])c1ccc(SCc2c(F)cccc2Cl)nc1 | < 0.3
42 | Cc1nc2ccccc2c(=O)n1-c1cccc(C(F)(F)F)c1 | 43.6 (≈ 143 µM)
43 | O=C1CN(c2ccc(F)cc2)C(=S)N1c1ccccc1 | 8.5 (≈ 29.7 µM)
44 | O=C(NCCNC(=O)c1ccc(F)cc1)c1ccc(F)cc1 | 12.9 (≈ 42.4 µM)

Row | Structure (SMILES) | solubility kinetic [µg/mL]
45 | CC1Cc2ccccc2N1CC(=O)NC(=O)NC(C)(C)C (stereo not drawn) | 30.7 (≈ 106 µM)
46 | O=C(O)CCC(=O)N1CCN(c2ncccc2C(F)(F)F)CC1 | 44.5 (≈ 134 µM)
47 | COc1cccc2cc(/C(=N/O)c3ccccc3)oc12 | < 0.6
48 | O=C(NC1CCN(C(=O)NCc2ccccc2)CC1)c1cccc(F)c1 | 3.4 (≈ 9.57 µM)
49 | COc1ccccc1-c1nc(C#N)c(N2CC(C)CC(C)C2)o1 (stereo not drawn) | 1.5 (≈ 4.82 µM)
50 | O=C(c1cc2ccccc2s1)N1CCOCC1 | > 37.1
51 | Cc1ccc(N2C(=O)CSC2c2cccnc2)c(Cl)c1 (stereo not drawn) | > 45.7
52 | Cc1ccc(CNS(=O)(=O)c2c(C)n(C)c(=O)n(C)c2=O)cc1 | > 50.6
53 | CCOc1ccccc1NC(=O)NCCN1CCCCC1 | > 43.7
54 | N#C/C(=C\c1ccc(O)cc1)C(=O)N1CCCC1 | 30.1 (≈ 124 µM)
55 | O=C1NC(=O)C(Cc2c[nH]c3ccccc23)N1 (stereo not drawn) | > 34.4
56 | O=C(CN1C(=O)NC2(CCCC2)C1=O)Nc1ccccc1N1CCCC1 | 46.4 (≈ 130 µM)
57 | CCCc1nnc(NC(=O)CS(=O)(=O)c2ccccc2)s1 | > 48.8
58 | COc1cccc(/C=C/C(=O)NCc2ccc3c(c2)OCO3)c1 | 11.4 (≈ 36.6 µM)
59 | CC1Cc2ccccc2N1C(=O)c1ccc2nccnc2c1 (stereo not drawn) | > 43.4
60 | CCOc1ccc(C(=O)N2CCc3ccccc32)cc1 | 13.3 (≈ 49.8 µM)
61 | CC(=O)c1c(C)[nH]c(C(=O)COC(=O)c2cccs2)c1C | 6.9 (≈ 22.6 µM)
62 | O=C(NCCOc1ccccc1)c1ccccc1Cl | > 41.4
63 | O=C1C=CC(=O)N1 | 9 (≈ 92.7 µM)
64 | C1N2CN3CN1CN(C2)C3 | > 21
65 | CC(OC(=O)c1ccc2ccccc2n1)C(=O)c1ccccc1 (stereo not drawn) | > 45.8
66 | COc1cc(OC)nc(Oc2cccc(C(F)(F)F)c2)n1 | < 0.3

Row | Structure (SMILES) | solubility kinetic [µg/mL]
67 | COC(=O)c1c(C)[nH]c(C)c1-c1ccc([N+](=O)[O-])cc1 | 36.3 (≈ 132 µM)
68 | Nc1nonc1C(=O)NCCNc1ccc([N+](=O)[O-])cc1 | 3.8 (≈ 13 µM)
69 | c1ccc2c(Nc3nc(-c4ccncc4)nc4ccccc34)cccc2c1 | < 0.2
70 | O=C(Nc1ccc2c(c1)Cc1ccccc1-2)c1cccnc1 | 1.4 (≈ 4.89 µM)
71 | CCN(C(=O)CSc1nnc(C)c(=O)[nH]1)c1cccc2ccccc12 | > 53.2
72 | Cc1ccc(N2CC(O)Cn3c2nc2c3c(=O)[nH]c(=O)n2C)cc1 (stereo not drawn) | 16.2 (≈ 49.5 µM)
73 | Cc1ccc(C(=O)C(C)OC(=O)c2ccc(Cl)nc2)cc1 (stereo not drawn) | 34.1 (≈ 112 µM)
74 | CN(C)S(=O)(=O)c1cc(C(=O)NCc2ccccc2)c(Cl)cc1Cl | 47.1 (≈ 122 µM)
75 | Cc1ccc(C)c(N2CCN(CC3CCCCC3)CC2)c1 | 2.3 (≈ 8.03 µM)
76 | Cc1ccc(SCC(=O)NC(=O)c2ccccc2Br)c(C)c1 | > 56.7
77 | Cl.N[C@H]1C(O)O[C@H](CO)[C@@H](O)[C@@H]1O (stereo partly drawn) | > 32.3
78 | Cn1c2ccc(F)cc2c2nc3ccccc3nc21 | 0.7 (≈ 2.79 µM)
79 | Cc1ccc(C(=O)N/C(=C/c2ccco2)C(=O)NCc2ccco2)cc1 | > 52.6
80 | N#Cc1c(N2CCCC2)nsc1-c1ccccc1 | 0.4 (≈ 1.57 µM)
81 | CN(CC(=O)Nc1cccc(F)c1)CC(=O)Nc1cccc2ccccc12 | 15.4 (≈ 42.1 µM)
82 | O=c1[nH]cnc2sc3c(c12)CCCCC3 | 19.9 (≈ 90.3 µM)
83 | COc1ccc(/C=C2\C(=O)ON=C2c2ccccc2)cc1 | 39.1 (≈ 140 µM)
84 | O=C(Nc1ccccc1Br)c1ccc2nccnc2c1 | > 49.2
85 | O=[N+]([O-])c1ccc(-c2nc(-c3ccncc3)no2)cc1 | 1.3 (≈ 4.85 µM)
86 | CCOc1ccc(N2C(=O)S/C(=C\c3ccc(O)c(OCC)c3)C2=O)cc1 | < 0.8
87 | CCc1ccc(OCC(=O)NC(C)C)cc1 | 30.9 (≈ 140 µM)
88 | CC1CC(C)CN(C(=O)CSc2n[nH]c(N)n2)C1 (stereo not drawn) | > 40.4
